The record followed here is patent publication US4837399A, “Napthoquinone antibiotics from fuserium solani” (The United States of America as represented by the …, priority 1988, dated 1989).

Assay type in all cases: cell-based
The subject of experiment [1] is Curtobacterium flaccumfaciens pv. poinsettiae. Briefly: Filter paper disc assay, Curtobacterium flaccumfaciens pv. poinsettiae. Particulars: 20, 40, and 80 μg/disc, Kings medium B plates. On the procedure: (§1) Antimicrobial activity of compounds was determined against a group of bacterial pathogens, using a broth microdilution assay.Pathogens tested included Staphylococcus aureus, Streptococcus pyogenes, Escherichia coli, Serratia marcescens, Proteus vulgaris, Klebsiella pneumoniae, Salmonella typhi, and Pseudomonas aeruginosa. Activity against plant pathogenic bacteria was tested by applying acetone solutions of compounds to 14 mm Whatman No. 1 filter paper discs, drying and placing four discs/plate on freshly inoculated Kings medium B plates. Pseudomonas cepacia, P. cichorii, P. fluorescens, P. syringae pv. phaseolicola, P. viridiflava, and Xanthomonas campestris were exposed to discs containing 20 μg of compound; Curtobacterium flaccumfaciens pv. poinsettiae (formerly Corynebacterium poinsettiae) was tested at 20, 40, and 80 μg/disc. Using a similar assay procedure, Alternaria citri, Colletotrichum gloeosporioides, Diplodia natalensis, Fusarium solani, F. oxysporum, Geotrichum candidium, Phomopsis citri, and Phytophthora parasitica were tested to determine the antifungal properties of the compounds.
They were, however, effective against gram-positive bacteria.

In the next experiment the test system is Staphylococcus aureus. Briefly: Broth microdilution assay, Staphylococcus aureus. Particulars: for MIC: A = Staphylococcus aureus, complete suppression of microbial growth, read-out: Antibacterial activity (MIC). As for the experimental part: (§2) Purified compounds were tested for antibiotic activity by dissolving in dimethyl sulfoxide and utilizing a standard broth microdilution assay. The smallest amount of compound resulting in complete inhibition of bacterial growth is the minimum inhibitory concentration (MIC).
(§3) The organisms used in the tests were three strains of gram-positive bacteria: Staphylococcus aureus, Streptococcus pyogenes, and a strain of Staphylococcus aureus which was resistant to the antibiotic methicillin.
as §1
Background: Broth dilution looks for growth in wells or tubes with falling amounts of substance.

In another experiment the test system is Streptococcus pyogenes. Briefly: Broth microdilution assay, Streptococcus pyogenes. Conditions: for MIC: B = Streptococcus pyogenes, complete suppression of microbial growth, read-out: Antibacterial activity (MIC). As for the experimental part:
as §2, §3, §1

In another experiment the test system is gram-positive bacteria. Briefly: Broth microdilution assay, gram-positive bacteria overall. On the procedure:
as §2, §3
as §1, with “Using a similar assay procedure, Alternaria citri, Colletotrichum gloeosporioides, Diplodia natalensis, Fusarium solani, F. oxysporum, Geotrichum candidium, Phomopsis citri, and Phytophthora parasitica were tested to determine the antifungal properties of the compounds.” left out

The subject of experiment [2] is Staphylococcus aureus 95 (resistant to methicillin). Briefly: Broth microdilution assay, Staphylococcus aureus 95 (resistant to methicillin). On the procedure:
as §2, §3

≈ marks a conversion by molar mass, not a printed value.

Turning to `COC1=CC(=O)c2c(O)c(CO)c(CC(C)O)c(O)c2C1=O` (stereo not drawn) [Compound 3, 5,8-Dihydroxy-2-methoxy-6-hydroxymethyl-7-(2-hydroxypropyl)-1,4-naphthalenedione], in experiment [1], the “ranking of activity against Curtobacterium flaccumfaciens pv. poinsettiae” value is “followed by 1 and 3”. For the same compound, the values for the MIC in the experiment with Staphylococcus aureus and in the experiment with Streptococcus pyogenes were 1 µg/mL (≈ 3.24 µM) and 64 µg/mL (≈ 208 µM), respectively.

Consider `COC1=CC(=O)c2c(O)c(CO)c3c(c2C1=O)OC(C)C3` (stereo not drawn) [Compound 2, 2,3-Dihydro-5-hydroxy-4-hydroxymethyl-8-methoxy-2-methyl-naphtho [1,2-b]furan-6,9-dione], for which the “ranking of activity against Curtobacterium flaccumfaciens pv. poinsettiae” value in experiment [1] is reported as “most active”. Also, the “effectiveness in control of Staphylococcus aureus (in words)” value with Staphylococcus aureus is on record as “most effective”. In addition, the MIC in the experiment with Staphylococcus aureus was determined as 4 µg/mL (≈ 13.8 µM); in the experiment on Streptococcus pyogenes it was 64 µg/mL (≈ 220 µM).

As for `COc1cc(O)c2c(c1O)C(=O)C(CC(C)O)C(CO)C2=O` (stereo not drawn) [Compound 1, 2,3-Dihydro-5,8-dihydroxy-6-methoxy-2-hydroxymethyl-3-(2-hydroxypropyl)-1,4-naphthalenedione], the “effectiveness against gram-positive bacteria (in words)” value in the experiment with gram-positive bacteria is “the most effective”. The MIC in the experiment on gram-positive bacteria (read-out: inhibiting growth) is 0.5 to 1 µg/mL (≈ 1.61 to 3.22 µM); in experiment [2] (C = Staphylococcus aureus 95 (resistant to methicillin), complete suppression of microbial growth, read-out: Antibacterial activity (MIC)) it was 4 µg/mL (≈ 12.9 µM); in the experiment with Staphylococcus aureus, 1 µg/mL (≈ 3.22 µM); with Streptococcus pyogenes it was 0.5 µg/mL (≈ 1.61 µM). In addition, the “preference for control of Staphylococcus aureus 95 (in words)” value in experiment [2] is on record as “preferred”. In the experiment with Staphylococcus aureus, the “effectiveness in control of Staphylococcus aureus (in words)” value is recorded as “most effective”. The “preference for control of Streptococcus pyogenes (in words)” value in the experiment on Streptococcus pyogenes was “preferred”.
